Calls of active or inactive are those of the source. No cut-off for these calls is given here.
Assays:
Staphylococcus aureus [1] = test: Antibacterial activity against methicillin-resistant Staphylococcus aureus isolate 2 by disk diffusion assay; type: functional
Staphylococcus aureus [2] = test: Antibacterial activity against methicillin-resistant Staphylococcus aureus isolate 3 by disk diffusion assay; type: functional
Staphylococcus aureus [3] = test: Antibacterial activity against methicillin-resistant Staphylococcus aureus isolate 4 by disk diffusion assay; type: functional
Staphylococcus aureus [4] = test: Antibacterial activity against methicillin-resistant Staphylococcus aureus NCTC 12493 at 1.69 mM after 5 hrs by time kill assay; type: functional, organism-based
Staphylococcus aureus [5] = test: Antibacterial activity against methicillin-resistant Staphylococcus aureus isolate 8 by disk diffusion assay; type: functional
Staphylococcus aureus [6] = test: Antibacterial activity against methicillin-resistant Staphylococcus aureus isolate 1 by disk diffusion assay; type: functional
Staphylococcus aureus [7] = test: Antibacterial activity against vancomycin-intermediate resistant Staphylococcus aureus Mu50 after 24 hrs by checkerboard assay; type: functional; details: Mu50, 24 h
Staphylococcus aureus [8] = test: Antibacterial activity against methicillin-resistant Staphylococcus aureus isolate 8 after 24 hrs by checkerboard assay; type: functional; details: isolate 8, 24 h
Staphylococcus aureus [9] = test: Antibacterial activity against vancomycin-intermediate resistant Staphylococcus aureus Mu50 at 1.69 mM after 4 hrs by time kill assay; type: functional, organism-based
Staphylococcus aureus [10] = test: Antibacterial activity against methicillin-resistant Staphylococcus aureus isolate 6 by disk diffusion assay; type: functional
Staphylococcus aureus [11] = test: Antibacterial activity against methicillin-resistant Staphylococcus aureus isolate 2 after 24 hrs by checkerboard assay; type: functional; details: isolate 2, 24 h
Staphylococcus aureus [12] = test: Antibacterial activity against methicillin-resistant Staphylococcus aureus isolate 4 after 24 hrs by checkerboard assay; type: functional; details: isolate 4, 24 h
Staphylococcus aureus [13] = test: Antibacterial activity against methicillin-resistant Staphylococcus aureus NCTC 12493 assessed as log reduction of bacterial growth after 9 hrs; type: functional
Staphylococcus aureus [14] = test: Antibacterial activity against methicillin-resistant Staphylococcus aureus NCTC 12493 at 1.69 mM after 4 hrs by time kill assay; type: functional, organism-based
Staphylococcus aureus [15] = test: Antibacterial activity against methicillin-resistant Staphylococcus aureus NCTC 12493 after 24 hrs by checkerboard assay; type: functional; details: NCTC 12493, 24 h
Staphylococcus aureus [16] = test: Antibacterial activity against methicillin-resistant Staphylococcus aureus isolate 9 by disk diffusion assay; type: functional
Staphylococcus aureus [17] = test: Antibacterial activity against methicillin-resistant Staphylococcus aureus isolate 6 after 24 hrs by checkerboard assay; type: functional; details: isolate 6, 24 h
Staphylococcus aureus [18] = test: Antibacterial activity against methicillin-sensitive Staphylococcus aureus ATCC 25923 at 1.69 mM after 4 hrs by time kill assay; type: functional, organism-based
Staphylococcus aureus [19] = test: Antibacterial activity against methicillin-resistant Staphylococcus aureus isolate 3 after 24 hrs by checkerboard assay; type: functional; details: isolate 3, 24 h
Staphylococcus aureus [20] = test: Antibacterial activity against Staphylococcus aureus ATCC 25923 after 24 hrs by checkerboard assay; type: functional; details: ATCC 25923, 24 h
Staphylococcus aureus [21] = test: Antibacterial activity against methicillin-resistant Staphylococcus aureus isolate 9 after 24 hrs by checkerboard assay; type: functional; details: isolate 9, 24 h
Staphylococcus aureus [22] = test: Antibacterial activity against methicillin-resistant Staphylococcus aureus isolate 7 by disk diffusion assay; type: functional
Staphylococcus aureus [23] = test: Antibacterial activity against methicillin-resistant Staphylococcus aureus isolate 7 after 24 hrs by checkerboard assay; type: functional; details: isolate 7, 24 h
Staphylococcus aureus [24] = test: Antibacterial activity against methicillin-sensitive Staphylococcus aureus ATCC 25923 at 1.69 mM after 5 hrs by time kill assay; type: functional, organism-based
Staphylococcus aureus [25] = test: Antibacterial activity against methicillin-resistant Staphylococcus aureus isolate 1 after 24 hrs by checkerboard assay; type: functional; details: isolate 1, 24 h
Staphylococcus aureus [26] = test: Antibacterial activity against methicillin-resistant Staphylococcus aureus isolate 5 by disk diffusion assay; type: functional
Staphylococcus aureus [27] = test: Antibacterial activity against methicillin-resistant Staphylococcus aureus isolate 5 after 24 hrs by checkerboard assay; type: functional; details: isolate 5, 24 h

SMILES: O=c1c(O)c(-c2ccc(O)c(O)c2)oc2cc(O)cc(O)c12 [QUERCETIN]
- inhibition zone (IZ) (Staphylococcus aureus [1]): inactive
- inhibition zone (IZ) (Staphylococcus aureus [2]): inactive
- inhibition zone (IZ) (Staphylococcus aureus [3]): inactive
- Activity (Staphylococcus aureus [4]): inactive
- inhibition zone (IZ) (Staphylococcus aureus [5]): inactive
- inhibition zone (IZ) (Staphylococcus aureus [6]): 8 mm
- MIC (Staphylococcus aureus [7]): 1690 µM
- MIC (Staphylococcus aureus [8]): 1690 µM
- Activity (Staphylococcus aureus [9]): inactive
- inhibition zone (IZ) (Staphylococcus aureus [10]): inactive
- MIC (Staphylococcus aureus [11]): 1690 µM
- MIC (Staphylococcus aureus [12]): 1690 µM
- FC (Staphylococcus aureus [13]): 1
- Activity (Staphylococcus aureus [14]): Active
- MIC (Staphylococcus aureus [15]): 850 µM
- inhibition zone (IZ) (Staphylococcus aureus [16]): inactive
- MIC (Staphylococcus aureus [17]): 1690 µM
- Activity (Staphylococcus aureus [18]): Active
- MIC (Staphylococcus aureus [19]): 1690 µM
- MIC (Staphylococcus aureus [20]): 1690 µM
- MIC (Staphylococcus aureus [21]): 1690 µM
- inhibition zone (IZ) (Staphylococcus aureus [22]): inactive
- MIC (Staphylococcus aureus [23]): 1690 µM
- Activity (Staphylococcus aureus [24]): inactive
- MIC (Staphylococcus aureus [25]): 1690 µM
- inhibition zone (IZ) (Staphylococcus aureus [26]): inactive
- MIC (Staphylococcus aureus [27]): 1690 µM

— ChEMBL document CHEMBL3600353, “In Vitro Activity of Epigallocatechin Gallate and Quercetin Alone and in Combination versus Clinical Isolates of Methicillin-Resistant Staphylococcus aureus” (2015)
